Results reported in patent publication US20080255079A1, “Therapeutic Use of Nefopam and Analogues Thereof” (priority 2005, published 2008).
Where a name gives a salt, the structure may show the parent alone. Marks after values point to notes of the source that are not given here.

Columns and labels:
[1] = test system: formalin-induced paw licking model in mice; test: Formalin-induced hyperalgesia (paw licking) in mouse; type: in vivo; conditions: for Nociception, hindpaw licking time, early phase: early phase (0-5 min after formalin); for Nociception, hindpaw licking time, early phase / Nociception, hindpaw licking time, late phase: 60 min before formalin, vs vehicle; for Nociception, hindpaw licking time, late phase: late phase (20-30 min after formalin); for licking behaviour compared to vehicle control, first phase (in words): first phase (acute nociceptive pain), at both 60 and 100 mg/kg; for paw licking time compared to vehicle control (in words): po, both phases; for licking behaviour, second phase (in words): second phase (persistent pain states), 100 mg/kg
Description: Nefopam and (+)-nefopam have been evaluated in the formalin-induced paw licking model in mice. […] The late phase seems to be an inflammatory response and is a recognized model of persistent pain. This test may, therefore, be a useful indicator of analgesic efficacy in fibromyalgia. Compounds were evaluated for both an early stage response and a late stage response and compared against morphine as control.
Inflammation was induced by subplantar injection of a 5% formalin solution (0.02 ml) into the mouse right hindpaw (20-25 g male Rj: NMRI). Hindpaw licking time was continuously recorded in a blinded fashion between 0 to 5 minutes (early phase) and between 20 to 30 minutes (late phase) after formalin injection (Hunskaar etal., 1985—J. Neurosci. Methods; 14:69-76).
The test substances and vehicle were orally administered 60 min before formalin injection.

[2] = test system: mice exposed to marbles (marble burying); test: Marble Burying Test in mouse; type: in vivo; conditions: for Number of marbles buried (% change from ctrl): 30 min before test; for antidepressant and anxiolytic activity (in words): ip
Description: Nefopam and (+)-nefopam have been evaluated in the Marble Burying Test, a model which detects anxiolytic/tranquillizing activity. The method follows that described by Broekkamp et al. (1986—Eur. J. Pharmacol., 126, 223-229). Mice exposed to novel object (marbles) will bury them in the sawdust floor covering. Anxiolytics decrease the number of marbles buried at non-sedative doses.
Mice are individually placed in transparent plastic cages (33×21×18 cm) with 5 cm of sawdust on the floor, and 25 marbles grouped in the centre of the cage. The cage is covered with an inverted plastic cage. Each test cage, together with the marbles, is impregnated with mouse odor beforehand, by leaving 10 mice in the cage for 15 minutes. These mice then play no further role in the experiment. The number of marbles covered by sawdust (⅔ or more) is counted at the end of a 30 minute test.
All compounds were administered i.p. 30 minutes before the test, and compared with a vehicle control group. Clobazam (8 mg/kg i.p.), administered under the same experimental conditions, was used as reference substance.

[3] = test system: mice forced to swim (duration of immobility); test: Behavioural Despair Test in mouse; type: in vivo; conditions: for Duration of Immobility (% change from ctrl): 30 min before test; for anti-depressant activity (in words): ip
Description: Nefopam and (+)-nefopam have been evaluated in the Behavioural Despair Test, a model which detects antidepressant activity. This test was conducted according to the method of Porsolt et al., (1977—Arch. Int. Pharmacodyn., 229:327-336), in which mice are forced to swim in a situation from which they cannot escape rapidly become immobile. Antidepressants decrease the duration of immobility.
Mice (20-27 g male Rj: NMRI) were individually placed in a cylinder (height=24 cm, diameter=13 cm) containing 10 cm water (22° C.) from which they cannot escape. The mice were placed in the water for 6 minutes and the duration of immobility during the last 4 minutes was measured. All compounds were administered i.p. 30 minutes before the test, and compared with a vehicle control group. Imipramine (32 mg/kg i.p.), administered under the same experimental conditions, was used as reference substance.

[4] = conventional release preparations; cited from earlier work

| Compound | Nociception, hindpaw licking time, early phase ([1]; 30 mg/kg po) | Nociception, hindpaw licking time, early phase ([1]; 60 mg/kg po) | Nociception, hindpaw licking time, early phase ([1]; 100 mg/kg po) | licking behaviour compared to vehicle control, first phase (in words) [1] | Nociception, hindpaw licking time, late phase ([1]; 30 mg/kg po) | Nociception, hindpaw licking time, late phase ([1]; 60 mg/kg po) | Nociception, hindpaw licking time, late phase ([1]; 100 mg/kg po) | paw licking time compared to vehicle control (in words) [1] | licking behaviour, second phase (in words) [1] | Number of marbles buried (% change from ctrl) ([2]; 10 mg/kg ip) | Number of marbles buried (% change from ctrl) ([2]; 20 mg/kg ip) | Number of marbles buried (% change from ctrl) ([2]; 40 mg/kg ip) | antidepressant and anxiolytic activity (in words) [2] | Duration of Immobility (% change from ctrl) ([3]; 20 mg/kg ip) | Duration of Immobility (% change from ctrl) ([3]; 40 mg/kg ip) | Duration of Immobility (% change from ctrl) ([3]; 60 mg/kg ip) | anti-depressant activity (in words) [3] | also measured |
| --- | --- | --- | --- | --- | --- | --- | --- | --- | --- | --- | --- | --- | --- | --- | --- | --- | --- | --- |
| CN1CC[C@]23c4c5ccc(O)c4O[C@H]2[C@@H](O)C=C[C@H]3[C@H]1C5 [Morphine] | – | – | – | – | – | – | – | – | – | – | – | – | – | – | – | – | – | Nociception, hindpaw licking time, early phase ([1]; 80 mg/kg po): −98%*; Nociception, hindpaw licking time, late phase ([1]; 80 mg/kg po): −98%* |
| CN1CCO[C@@H](c2ccccc2)c2ccccc2C1 [(+)-Nefopam] | −40% | −59%* | −86%* | significant reduction in licking behaviour | −31% | −69% | −90%* | dose-dependently decreased paw licking time | significant reduction in licking behaviour | −56 * % change from ctrl | −99 * % change from ctrl | −100 * % change from ctrl | significant antidepressant and anxiolytic activity | −38 % change from ctrl | −92 * % change from ctrl | −100 * % change from ctrl | significant anti-depressant activity | – |
| CN1CCOC(c2ccccc2)c2ccccc2C1 (racemic) [Nefopam, 5-methyl-1-phenyl-3,4,5,6-tetrahydro-1H-2,5-benzoxazocine hydrochloride] | −28% | −64%* | −85%* | significant reduction in licking behaviour | −41% | −63%* | −89%* | dose-dependently decreased paw licking time | significant reduction in licking behaviour | −66 * % change from ctrl | −98 * % change from ctrl | −100 * % change from ctrl | significant antidepressant and anxiolytic activity | −42 % change from ctrl | −85 * % change from ctrl | −100 * % change from ctrl | significant anti-depressant activity | elimination half-life [4]: four |
| CN(C)CCCN1c2ccccc2CCc2ccccc21 [Imipramine] | – | – | – | – | – | – | – | – | – | – | – | – | – | – | – | – | – | Duration of Immobility (% change from ctrl) ([3]; 32 mg/kg ip): −80 * % change from ctrl |
| CN1C(=O)CC(=O)N(c2ccccc2)c2cc(Cl)ccc21 [Clobazam] | – | – | – | – | – | – | – | – | – | – | – | – | – | – | – | – | – | Number of marbles buried (% change from ctrl) ([2]; 32 mg/kg ip): −75 * % change from ctrl |
